According to PubChem BioAssay AID1963825 (Molecular Pharmacology Branch, DTP, NCI, 2024):

Assay: Anticancer human tumor 997537-175-T-J1-PDC patient-derived colon adenocarcinoma cell line growth inhibition [POLQ]
Details: 997537-175-T-J1-PDC complex spheroid viability, combination with POLQ inhibitors; for IC50: curve of first compound; for viability, T/C: stronger effect = lower value
Procedure, shortened: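 Growth inhibition in 3D: complex spheroids (tumor PDC, HUVEC, MSC) treated with POLQ inhibitor combinations; where Cmax unknown, highest tested concentration 10 microM, except SN-38 at 1 microM.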
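Further: luminescence signal used as a surrogate for viable cells; spheroids exposed to drugs for seven days before readout.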

SMILES: Cn1ncnc1[C@H]1c2n[nH]c(=O)c3cc(F)cc(c23)N[C@@H]1c1ccc(F)cc1 + Cc1cccc(N(C)C(=O)C2C(O)CCN2c2nc(C)cc(C(F)(F)F)c2C#N)c1
- IC50 (second compound 0.0316 µM): > 100 nM
- IC50 (second compound 0.1 µM): > 100 nM
- IC50 (second compound 0.316 µM): > 100 nM
- IC50 (second compound 1 µM): > 100 nM
- IC50 (second compound 3.16 µM): > 100 nM
- IC50 (second compound 10 µM): > 100 nM
- viability, T/C (second compound 0.0316 µM, first compound 0.000316 µM): 98%
- viability, T/C (second compound 0.0316 µM, first compound 0.001 µM): 109%
- viability, T/C (second compound 0.0316 µM, first compound 0.00316 µM): 93.5%
- viability, T/C (second compound 0.0316 µM, first compound 0.01 µM): 98.6%
- viability, T/C (second compound 0.0316 µM, first compound 0.0316 µM): 110%
- viability, T/C (second compound 0.0316 µM, first compound 0.1 µM): 90%
- viability, T/C (second compound 0.1 µM, first compound 0.000316 µM): 94.8%
- viability, T/C (second compound 0.1 µM, first compound 0.001 µM): 113%
- viability, T/C (second compound 0.1 µM, first compound 0.00316 µM): 76.2%
- viability, T/C (second compound 0.1 µM, first compound 0.01 µM): 119%
- viability, T/C (second compound 0.1 µM, first compound 0.0316 µM): 113%
- viability, T/C (second compound 0.1 µM, first compound 0.1 µM): 97.6%
- viability, T/C (second compound 0.316 µM, first compound 0.000316 µM): 90.6%
- viability, T/C (second compound 0.316 µM, first compound 0.001 µM): 102%
- viability, T/C (second compound 0.316 µM, first compound 0.00316 µM): 94.3%
- viability, T/C (second compound 0.316 µM, first compound 0.01 µM): 94.6%
- viability, T/C (second compound 0.316 µM, first compound 0.0316 µM): 91.1%
- viability, T/C (second compound 0.316 µM, first compound 0.1 µM): 91.4%
- viability, T/C (second compound 1 µM, first compound 0.000316 µM): 92.6%
- viability, T/C (second compound 1 µM, first compound 0.001 µM): 109%
- viability, T/C (second compound 1 µM, first compound 0.00316 µM): 96.1%
- viability, T/C (second compound 1 µM, first compound 0.01 µM): 100%
- viability, T/C (second compound 1 µM, first compound 0.0316 µM): 98.3%
- viability, T/C (second compound 1 µM, first compound 0.1 µM): 84.4%
- viability, T/C (second compound 3.16 µM, first compound 0.000316 µM): 105%
- viability, T/C (second compound 3.16 µM, first compound 0.001 µM): 109%
- viability, T/C (second compound 3.16 µM, first compound 0.00316 µM): 95.6%
- viability, T/C (second compound 3.16 µM, first compound 0.01 µM): 91.5%
- viability, T/C (second compound 3.16 µM, first compound 0.0316 µM): 92.1%
- viability, T/C (second compound 3.16 µM, first compound 0.1 µM): 94.7%
- viability, T/C (second compound 10 µM, first compound 0.000316 µM): 102%
- viability, T/C (second compound 10 µM, first compound 0.001 µM): 93.1%
- viability, T/C (second compound 10 µM, first compound 0.00316 µM): 89.8%
- viability, T/C (second compound 10 µM, first compound 0.01 µM): 84.4%
- viability, T/C (second compound 10 µM, first compound 0.0316 µM): 84.4%
- viability, T/C (second compound 10 µM, first compound 0.1 µM): 99.3%
